Test: Purity and stability test (content by HPLC after sealed storage)
Assay type: physicochemical
Conditions: for Content of the intial sample: HPLC content before storage; for Content of the sample stored at 25° C. for 14 days: sealed storage at 25° C. for 14 days, content by HPLC
Procedure: The purity was detected by high performance liquid chromatography (HPLC) method. HPLC method was performed according to the method reported in Journal of Industrial Microbiology & Biotechnology (2001), 26, 216-221; the normal phase HPLC is employed:
silica gel column: 4.6 mm*250 mm;
Mobile phase: ethyl acetate:methanol:water=84:9:7 (V/V/V);
Detection wavelength: 278 nm.
The purity and stability of samples prepared in the comparative example and examples 1-4 were compared. The method is described as follows:
The samples from comparative-example, example 1, example 2, example 3 and example 4 were obtained separately and kept at 25° C. for 14 days in sealed storage. And then the contents of the samples were tested by HPLC.

Row | Content of the intial sample [%] | Content of the sample stored at 25° C. for 14 days [%] | stability compared with crystal A and amorphous powder (25° C., 14 days, sealed storage) | Compound
1 | 99.8 | 99.5 |  | CCC(C)CC(C)CCCCCCCCC(=O)NC1CC(O)[C@@H](O)NC(=O)[C@H]2[C@@H](O)CCN2C(=O)[C@H](C(O)CC(N)=O)NC(=O)C(C(O)C(O)c2ccc(O)cc2)NC(=O)[C@@H]2C[C@@H](O)CN2C(=O)[C@H](C(C)O)NC1=O (some centres unmarked) [Example 3]
2 |  |  | better stability | CCC(C)CC(C)CCCCCCCCC(=O)NC1CC(O)[C@@H](O)NC(=O)[C@H]2[C@@H](O)CCN2C(=O)[C@H](C(O)CC(N)=O)NC(=O)C(C(O)C(O)c2ccc(O)cc2)NC(=O)[C@@H]2C[C@@H](O)CN2C(=O)[C@H](C(C)O)NC1=O (some centres unmarked) [crystal B of the compound of formula I]
3 | 99.8 | 99.6 |  | CCC(C)CC(C)CCCCCCCCC(=O)NC1CC(O)[C@@H](O)NC(=O)[C@H]2[C@@H](O)CCN2C(=O)[C@H](C(O)CC(N)=O)NC(=O)C(C(O)C(O)c2ccc(O)cc2)NC(=O)[C@@H]2C[C@@H](O)CN2C(=O)[C@H](C(C)O)NC1=O (some centres unmarked) [Example 2]
4 | 99.8 | 99.5 |  | CCC(C)CC(C)CCCCCCCCC(=O)NC1CC(O)[C@@H](O)NC(=O)[C@H]2[C@@H](O)CCN2C(=O)[C@H](C(O)CC(N)=O)NC(=O)C(C(O)C(O)c2ccc(O)cc2)NC(=O)[C@@H]2C[C@@H](O)CN2C(=O)[C@H](C(C)O)NC1=O (some centres unmarked) [Example 4]
5 | 96.1 | 93.5 |  | CCC(C)CC(C)CCCCCCCCC(=O)NC1CC(O)[C@@H](O)NC(=O)[C@H]2[C@@H](O)CCN2C(=O)[C@H](C(O)CC(N)=O)NC(=O)C(C(O)C(O)c2ccc(O)cc2)NC(=O)[C@@H]2C[C@@H](O)CN2C(=O)[C@H](C(C)O)NC1=O (some centres unmarked) [Example 1]
6 | 97.7 | 95.6 |  | CCC(C)CC(C)CCCCCCCCC(=O)NC1CC(O)[C@@H](O)NC(=O)[C@H]2[C@@H](O)CCN2C(=O)[C@H](C(O)CC(N)=O)NC(=O)C(C(O)C(O)c2ccc(O)cc2)NC(=O)[C@@H]2C[C@@H](O)CN2C(=O)[C@H](C(C)O)NC1=O (some centres unmarked) [Comparative example, reference compound]
